From ChEMBL document CHEMBL3885861, “Open TG-GATES”

Species on record: Rattus norvegicus
Assay: Open TG-GATES - Regimen: Single
Type: toxicity, organism-based, Sprague-Dawley
Parameters: regimen Single, gender Male, age 6 weeks
Details: in vivo, ip, 0.003 mg/kg, route intraperitoneal injection, dose 3 ug/Kg, dose level Middle; for APTT / Bas / Eos / Fbg / Hb / Ht / Lym / MCH / MCHC / MCV / Mono / Neu / PT / Plat / RBC / Ret / WBC: tissue Blood; for KIDNEY_L / KIDNEY_R / KIDNEY_TOTAL: tissue Kidney; for LIVER: tissue Liver; for A/G / ALP / ALT / AST / BUN / CRE / Ca / Cl / DBIL / GLC / IP / K / LDH / Na / PL / RALB / TBIL / TC / TG / TP / gamma-GTP: tissue Plasma

Substance: H-KGDRLS-OH [TNF-ALPHA]
- TERMINAL_BW (3 h): 199 g
- APTT (3 h): 17.3 s
- Bas (3 h): 0%
- Eos (3 h): 0.4%
- Fbg (3 h): 265 mg/dL
- Hb (3 h): 13 g/dL
- Ht (3 h): 39.9%
- Lym (3 h): 70.4%
- MCH (3 h): 21.1 pg
- MCHC (3 h): 32.6%
- MCV (3 h): 64.9 fL
- Mono (3 h): 4.2%
- Neu (3 h): 23%
- PT (3 h): 15.9 s
- Plat (3 h): 112.9 x10_4/uL
- RBC (3 h): 614.6 x10_4/ul
- Ret (3 h): 9.2%
- WBC (3 h): 88.2 x10_2/uL
- KIDNEY_L (3 h): 0.9 g
- KIDNEY_R (3 h): 0.9 g
- KIDNEY_TOTAL (3 h): 1.8 g
- LIVER (3 h): 9.3 g
- A/G (3 h): 0.9
- ALP (3 h): 1480.4 IU/L
- ALT (3 h): 47.6 IU/L
- AST (3 h): 75.8 IU/L
- BUN (3 h): 10.8 mg/dL
- CRE (3 h): 0.2 mg/dL
- Ca (3 h): 10.8 mg/dL
- Cl (3 h): 104.8 meq/L
- DBIL (3 h): 0.01 mg/dL
- GLC (3 h): 162.2 mg/dL
- IP (3 h): 9.2 mg/dL
- K (3 h): 4.3 meq/L
- LDH (3 h): 68 IU/L
- Na (3 h): 141.6 meq/L
- PL (3 h): 137 mg/dL
- RALB (3 h): 2.5 g/dL
- TBIL (3 h): 0.052 mg/dL
- TC (3 h): 73 mg/dL
- TG (3 h): 61.8 mg/dL
- TP (3 h): 5.3 g/dL
- gamma-GTP (3 h): 1.4 IU/L
- TERMINAL_BW (6 h): 197.1 g
- APTT (6 h): 17.1 s
- Bas (6 h): 0%
- Eos (6 h): 0.4%
- Fbg (6 h): 321.4 mg/dL
- Hb (6 h): 13 g/dL
- Ht (6 h): 39.7%
- Lym (6 h): 63.4%
- MCH (6 h): 21.5 pg
- MCHC (6 h): 33%
- MCV (6 h): 65.1 fL
- Mono (6 h): 2.6%
- Neu (6 h): 32%
- PT (6 h): 15.1 s
- Plat (6 h): 110.6 x10_4/uL
- RBC (6 h): 610.4 x10_4/ul
- Ret (6 h): 8%
- WBC (6 h): 81.9 x10_2/uL
- KIDNEY_L (6 h): 0.9 g
- KIDNEY_R (6 h): 0.9 g
- KIDNEY_TOTAL (6 h): 1.8 g
- LIVER (6 h): 8.7 g
- A/G (6 h): 0.9
- ALP (6 h): 1155.6 IU/L
- ALT (6 h): 39.8 IU/L
- AST (6 h): 65.8 IU/L
- BUN (6 h): 8.6 mg/dL
- CRE (6 h): 0.2 mg/dL
- Ca (6 h): 10.7 mg/dL
- Cl (6 h): 105.6 meq/L
- DBIL (6 h): 0.008 mg/dL
- GLC (6 h): 170.4 mg/dL
- IP (6 h): 10.2 mg/dL
- K (6 h): 3.7 meq/L
- LDH (6 h): 72.8 IU/L
- Na (6 h): 143.4 meq/L
- PL (6 h): 147.6 mg/dL
- RALB (6 h): 2.5 g/dL
- TBIL (6 h): 0.06 mg/dL
- TC (6 h): 84.4 mg/dL
- TG (6 h): 27.2 mg/dL
- TP (6 h): 5.4 g/dL
- gamma-GTP (6 h): 1 IU/L
- TERMINAL_BW (9 h): 194.9 g
- APTT (9 h): 17.3 s
- Bas (9 h): 0%
- Eos (9 h): 0.4%
- Fbg (9 h): 380.6 mg/dL
- Hb (9 h): 12.9 g/dL
- Ht (9 h): 39.7%
- Lym (9 h): 66.2%
- MCH (9 h): 21.2 pg
- MCHC (9 h): 32.4%
- MCV (9 h): 65.5 fL
- Mono (9 h): 2.6%
- Neu (9 h): 29.8%
- PT (9 h): 15.4 s
- Plat (9 h): 104.9 x10_4/uL
- RBC (9 h): 606.6 x10_4/ul
- Ret (9 h): 8.3%
- WBC (9 h): 75.4 x10_2/uL
- KIDNEY_L (9 h): 0.9 g
- KIDNEY_R (9 h): 0.9 g
- KIDNEY_TOTAL (9 h): 1.8 g
- LIVER (9 h): 7.9 g
- A/G (9 h): 0.9
- ALP (9 h): 1301.4 IU/L
- ALT (9 h): 36.4 IU/L
- AST (9 h): 71.4 IU/L
- BUN (9 h): 7.6 mg/dL
- CRE (9 h): 0.2 mg/dL
- Ca (9 h): 10.6 mg/dL
- Cl (9 h): 105.6 meq/L
- DBIL (9 h): 0.004 mg/dL
- GLC (9 h): 159 mg/dL
- IP (9 h): 9.5 mg/dL
- K (9 h): 4 meq/L
- LDH (9 h): 46.6 IU/L
- Na (9 h): 142 meq/L
- PL (9 h): 155.4 mg/dL
- RALB (9 h): 2.5 g/dL
- TBIL (9 h): 0.062 mg/dL
- TC (9 h): 92.6 mg/dL
- TG (9 h): 25.2 mg/dL
- TP (9 h): 5.3 g/dL
- gamma-GTP (9 h): 1 IU/L
- TERMINAL_BW (24 h): 211 g
- APTT (24 h): 14.6 s
- Bas (24 h): 0%
- Eos (24 h): 1%
- Fbg (24 h): 361.4 mg/dL
- Hb (24 h): 12.8 g/dL
- Ht (24 h): 39.4%
- Lym (24 h): 77.6%
- MCH (24 h): 20.7 pg
- MCHC (24 h): 32.6%
- MCV (24 h): 63.6 fL
- Mono (24 h): 3.2%
- Neu (24 h): 14.8%
- PT (24 h): 15.5 s
- Plat (24 h): 115.8 x10_4/uL
- RBC (24 h): 619 x10_4/ul
- Ret (24 h): 8%
- WBC (24 h): 65.2 x10_2/uL
- KIDNEY_L (24 h): 0.9 g
- KIDNEY_R (24 h): 0.9 g
- KIDNEY_TOTAL (24 h): 1.8 g
- LIVER (24 h): 10 g
- A/G (24 h): 0.9
- ALP (24 h): 1666.2 IU/L
- ALT (24 h): 42.8 IU/L
- AST (24 h): 71.2 IU/L
- BUN (24 h): 16.4 mg/dL
- CRE (24 h): 0.2 mg/dL
- Ca (24 h): 11.1 mg/dL
- Cl (24 h): 106.8 meq/L
- DBIL (24 h): 0.01 mg/dL
- GLC (24 h): 177.8 mg/dL
- IP (24 h): 8.5 mg/dL
- K (24 h): 4.3 meq/L
- LDH (24 h): 74.6 IU/L
- Na (24 h): 142.4 meq/L
- PL (24 h): 155 mg/dL
- RALB (24 h): 2.6 g/dL
- TBIL (24 h): 0.042 mg/dL
- TC (24 h): 80.4 mg/dL
- TG (24 h): 80.8 mg/dL
- TP (24 h): 5.7 g/dL
- gamma-GTP (24 h): 1 IU/L
